In a compilation of properties of binary mixtures (doi:10.1016/j.molliq.2017.06.029):

Assay: xn = mol fraction of the nth substance listed
Details: 100 kPa

Compound: OCc1ccco1 + CC(=O)[O-].CC[n+]1ccn(C)c1
- speed of sound (298.15 K, x2 = 0): 1447 m/s
- speed of sound (298.15 K, x2 = 0.0572): 1487 m/s
- speed of sound (298.15 K, x2 = 0.1058): 1522 m/s
- speed of sound (298.15 K, x2 = 0.1534): 1548 m/s
- speed of sound (298.15 K, x2 = 0.2087): 1573 m/s
- speed of sound (298.15 K, x2 = 0.408): 1637 m/s
- speed of sound (298.15 K, x2 = 0.5513): 1670 m/s
- speed of sound (298.15 K, x2 = 0.6031): 1680 m/s
- speed of sound (298.15 K, x2 = 0.7053): 1696 m/s
- speed of sound (298.15 K, x2 = 0.8045): 1711 m/s
- speed of sound (298.15 K, x2 = 0.8441): 1716 m/s
- speed of sound (298.15 K, x2 = 0.902): 1723 m/s
- speed of sound (303.15 K, x2 = 0): 1431 m/s
- speed of sound (303.15 K, x2 = 0.0572): 1471 m/s
- speed of sound (303.15 K, x2 = 0.1058): 1506 m/s
- speed of sound (303.15 K, x2 = 0.1534): 1532 m/s
- speed of sound (303.15 K, x2 = 0.2087): 1557 m/s
- speed of sound (303.15 K, x2 = 0.408): 1623 m/s
- speed of sound (303.15 K, x2 = 0.5513): 1656 m/s
- speed of sound (303.15 K, x2 = 0.6031): 1666 m/s
- speed of sound (303.15 K, x2 = 0.7053): 1683 m/s
- speed of sound (303.15 K, x2 = 0.8441): 1704 m/s
- speed of sound (308.15 K, x2 = 0): 1413 m/s
- speed of sound (308.15 K, x2 = 0.0572): 1452 m/s
- speed of sound (308.15 K, x2 = 0.1058): 1487 m/s
- speed of sound (308.15 K, x2 = 0.2087): 1540 m/s
- speed of sound (308.15 K, x2 = 0.3068): 1577 m/s
- speed of sound (308.15 K, x2 = 0.408): 1609 m/s
- speed of sound (308.15 K, x2 = 0.5063): 1633 m/s
- speed of sound (308.15 K, x2 = 0.5513): 1643 m/s
- speed of sound (308.15 K, x2 = 0.8045): 1685 m/s
- speed of sound (308.15 K, x2 = 0.8441): 1691 m/s
- speed of sound (308.15 K, x2 = 0.902): 1699 m/s
- speed of sound (313.15 K, x2 = 0): 1394 m/s
- speed of sound (313.15 K, x2 = 0.0572): 1430 m/s
- speed of sound (313.15 K, x2 = 0.1058): 1465 m/s
- speed of sound (313.15 K, x2 = 0.1534): 1490 m/s
- speed of sound (313.15 K, x2 = 0.2087): 1519 m/s
- speed of sound (313.15 K, x2 = 0.408): 1595 m/s
- speed of sound (313.15 K, x2 = 0.5063): 1620 m/s
- speed of sound (313.15 K, x2 = 0.5513): 1629 m/s
- speed of sound (313.15 K, x2 = 0.7053): 1657 m/s
- speed of sound (313.15 K, x2 = 0.8045): 1673 m/s
- speed of sound (313.15 K, x2 = 0.8441): 1678 m/s
- speed of sound (313.15 K, x2 = 0.902): 1686 m/s
- speed of sound (318.15 K, x2 = 0): 1375 m/s
- speed of sound (318.15 K, x2 = 0.1058): 1433 m/s
- speed of sound (318.15 K, x2 = 0.3068): 1534 m/s
- speed of sound (318.15 K, x2 = 0.408): 1578 m/s
- speed of sound (318.15 K, x2 = 0.5063): 1606 m/s
- speed of sound (318.15 K, x2 = 0.6031): 1627 m/s
- speed of sound (318.15 K, x2 = 0.8045): 1660 m/s
- speed of sound (318.15 K, x2 = 0.8441): 1666 m/s
- speed of sound (318.15 K, x2 = 0.902): 1674 m/s

Compound: CC(=O)[O-].CC[n+]1ccn(C)c1 + OCc1ccco1
- speed of sound (298.15 K, x1 = 1): 1735 m/s
- speed of sound (303.15 K, x1 = 1): 1722 m/s
- speed of sound (308.15 K, x1 = 1): 1710 m/s
- speed of sound (313.15 K, x1 = 1): 1698 m/s
- speed of sound (318.15 K, x1 = 1): 1686 m/s
